# Data reported in publication PMC9898759, “The Saccharomyces cerevisiae Yta7 ATPase hexamer contains a unique bromodomain tier that functions in nucleosome disassembly” (The Journal of Biological Chemistry, 2022).
# How the values were obtained:
# Yta7 = assay: AlphaScreen binding of biotinylated H3 N-tail peptide (unmodified or acetylated) to full-length Yta7; set-up: species or system Saccharomyces cerevisiae; details: for binding to Yta7: 50 nM 10xHis-3xFlag-Yta7, 50 nM biotinylated H3 (1–22 amino acid) peptide, 50 mM Mops pH 7.4, 100 mM NaCl, BSA 0.1 mg/ml, on ice 1.5 h
# Procedure: (§1) We performed AlphaScreen assays using a 6xHis detection kit (PerkinElmer). The biotinylated unmodified and the all-four-lysine acetylated H3 peptide (1–22 amino acids) were synthesized by GenScript. We individually mixed the purified 50 nM 10xHis-3xFlag-Yta7, 10xHis-3xFlag-Yta7ΔBRD, 10xHis-3xFlag-Yta7ΔBIMΔBRD, 6xHis-MBP-BIM, 6xHis-MBP-BRD, and the complex of 6xHis-MBP-BRD and MBP-BIM with 50 nM biotinylated and unmodified or acetylated H3 (1–22 amino acid) peptides, respectively, and incubated the mixtures on ice for 1.5 h with the streptavidin-coated donor beads (5 μg/ml) and nickel-chelated acceptor beads (5 μg/ml) in 50 mM Mops (pH 7.4), 100 mM NaCl, and bovine serum albumin (0.1 mg/ml). For nucleosome-binding assay, we used 50 nM 10xHis-3xFlag-Yta7 and 100 nM biotinylated human nucleosome. We incubated the mixture for 2 h on ice with the same concentration donor and acceptor beads. The donor beads contain a photosensitizer that converts ambient oxygen into short-lived singlet oxygen upon 680 nm light activation. When the acceptor beads are brought close enough to the donor beads by interaction between His-tagged proteins and biotinylated peptides, singlet oxygen can diffuse from the donor to the acceptor beads to transfer the energy to the thioxene derivatives of the acceptor beads, resulting in light emission at 520 to 620 nm range.
# [1] = Malachite Green ATPase assay of Yta7; format: biochemical; details: Malachite Green phosphate assay, 2 mM ATP, 25 mM Hepes pH 7.6, 2 mM MgCl2, 150 mM KCl, 1 mM DTT, room temperature 1 h, A620; three independent experiments; Fig. S1C
# Procedure: The Malachite Green Phosphate assay kit (Sigma–Aldrich) was used to measure the ATP hydrolysis rate of Yta7 present in different nucleotides. Yta7 was incubated in assay buffer (25 mM Hepes [pH 7.6], 2 mM MgCl2, 150 mM KCl, and 1 mM DTT) with or without histone-3 peptide (1–24 amino acids). Either 2 mM ATP or 2 mM ATPγS or 2 mM ADP (negative control) was added to initiate the reaction at room temperature for 1 h. Absorbance at 620 nm was measured in a Molecular Devices SpectraMax M2e microplate reader.
# Yta7_ΔBRD = assay: AlphaScreen binding of H3 peptide to Yta7 lacking BRD; set-up: species or system Saccharomyces cerevisiae; details: 50 nM construct (954–1132 deleted), 50 nM biotinylated H3 (1–22), pH 7.4, on ice 1.5 h, n = 3, Fig. S9B
# Procedure: as §1
# Yta7_ΔBIM ΔBRD = assay: AlphaScreen binding of H3 peptide to Yta7 lacking BIM and BRD; set-up: species or system Saccharomyces cerevisiae; details: 50 nM construct (320–350 and 954–1132 deleted), 50 nM biotinylated H3 (1–22), pH 7.4, on ice 1.5 h, n = 3, Fig. S9B
# Procedure: as §1
# 6xHis-MBP-BIM = assay: AlphaScreen binding of H3 peptide to MBP-fused BIM; set-up: species or system Saccharomyces cerevisiae; details: n = 3, Fig. S9D
# Procedure: as §1
# [2] = tested on: complex of 6xHis-MBP-BRD and MBP-BIM; assay: AlphaScreen binding of H3 peptide to BRD and BIM together; set-up: species or system Saccharomyces cerevisiae
# Procedure: as §1
# [3] = AlphaScreen, three independent experiments in triplicate
substance,measurement,setting,value
"acetylated H3 peptide (1–22 amino acids): biotinylated all-four-lysine acetylated H3 peptide (1–22 amino acids), synthesized by GenScript",binding to Yta7,Yta7; [3],bound Yta7
24-residue H3 N-tail: unmodified H3 peptides (1–24 amino acids) (GenScript),interaction with Yta7 (24-residue H3 N-tail),"Yta7; 24-residue H3 N-tail, Fig. S1, C and D",interacted with
"Yta7: full-length S. cerevisiae Yta7 AAA+ ATPase hexamer, 10xHis and 3xFLAG tagged",ATP hydrolysis,[1],hydrolyzed ATP
unmodified H3 peptide (1–22 amino acids),binding to Yta7,Yta7; [3],bound Yta7
same,binding signal relative to the acetylated version,"Yta7; AlphaScreen, 50 nM Yta7, 50 nM biotinylated H3 (1–22) peptides, pH 7.4, on ice 1.5 h, means of three independent experiments performed in triplicate, Fig. 2H",five times stronger
same,affinity / binding in the presence of ADP or ATPγS,"Yta7; AlphaScreen, biotinylated H3 (1-22 aa), in the presence of ADP or ATPγS, three independent experiments in triplicate, Fig. S1E",unaffected
same,"relative affinity, unmodified vs acetylated H3 peptide","Yta7; AlphaScreen, unmodified compared with acetylated H3 (1–22) peptide, qualitative, listed as unmodified peptide",higher affinity
same,binding to Yta7_ΔBRD,Yta7_ΔBRD,neither Yta7_ΔBRD nor Yta7_ΔBIM ΔBRD bind
same,binding to Yta7_ΔBIM ΔBRD,Yta7_ΔBIM ΔBRD,neither Yta7_ΔBRD nor Yta7_ΔBIM ΔBRD bind
same,binding signal to BIM alone,"6xHis-MBP-BIM; 50 nM 6xHis-MBP-BIM, 50 nM biotinylated H3 (1–22), pH 7.4, on ice 1.5 h",weak binding signal
same,binding signal to BIM alone relative to MBP control and BRD alone,"6xHis-MBP-BIM; 6xHis-MBP negative control, compared with 6xHis-MBP-BRD",above the MBP control but weaker than BRD alone
same,binding signal to BRD–BIM relative to Yta7 hexamer,[2]; BRD–BIM complex vs full-length Yta7 hexamer,an order of magnitude weaker
same,binding signal to BIM and BRD together relative to BRD alone,"[2]; complex of 6xHis-MBP-BRD and MBP-BIM vs 6xHis-MBP-BRD, 50 nM biotinylated H3 (1–22), pH 7.4, n = 3, Fig. S9D",stronger than BRD alone
